Data taken from patent US5298502A, “Method and composition for photodynamic treatment and detection of tumors” (priority 1991, dated 1994).

Columns and labels:
[1] = tested on: mosquito larvae; assay: Insecticidal test against mosquito larvae; settings: in vivo
[2] = tested on: DBA/2 Ha mice with SMT-F subcutaneous tumors; assay: Proto IX content of tissues of tumor-bearing mice fed the agent (Example 6); type: in vivo; settings: for concentration of Proto IX in tissue, Adrenal / concentration of Proto IX in tissue, Intestine / concentration of Proto IX in tissue, Kidneys / concentration of Proto IX in tissue, Liver / concentration of Proto IX in tissue, Tumor / Proto IX Mean Cps per gram, Intestine: 2000 ppm in feed; for Proto IX Mean Cps per gram, Adrenal / Proto IX Mean Cps per gram, Kidneys / Proto IX Mean Cps per gram, Liver / Proto IX Mean Cps per gram, Tumor / Weight of Tumor as excised: 2000 ppm in feed Days 2-10, sacrificed Day 10 (6j Day 7)
Procedure: In this Example the enzyme-inhibiting agents were added to the feed of tumor-bearing mice; for some of the mice, used as a control, no agent was added to the feed. The mice were then sacrificed and their kidneys, intestines, adrenal glands, liver and tumor were removed and analyzed for their content of Proto IX. The following enzyme-inhibiting agents were employed: [drawing 10]
More particularly, the mice were DBA/2 Ha mice which had been injected with SMT-F subcutaneous tumors on Day 0 in the right shoulder. The mice, individually housed, received untreated Purina Rodent Chow 5001 Mash on Day 1; thereafter on Days 2 through 10 the mice received the same Mash treated with 2000 ppm of the inhibiting agent being tested (or, for the controls, the same untreated Mash). The treatment of the Mash was effected by blending it with a small amount of an acetone solution of the agent to be tested. The mice were then sacrificed on Day 10, except for the mouse treated with the agent designated as 6j; the latter was sacrificed on Day 7. The tissues were refrigerated at 4° C. overnight, then blotted dry, and the fresh weight of each tissue sample was recorded. The tissues were then homogenized in 5 mL, or lo mL in the cases of intestines and liver, of acetone-0.1 N NH4 OH (9:I, v/v). The homogenates were then centrifuged at 1500 g and the supernatants were analyzed on a SPEX FAII2 spectrofluorometer; excitation 400 nm, emission 630 nm wavelengths, the optima for Proto IX. Proto IX accumulation was determined as CPS (fluorescent counts per second emitted) per gram of tissue. The results are tabulated below (results are averages for two mice for each treatment, except for treatments with agents 6f, 6h, 6i and 6j in each of which only one mouse was treated): […]

[3] = tested on: HeLa cells; assay: Proto IX production in HeLa cells, extract of cells alone (Example 7); type: cell-based; settings: Homo sapiens, 100 uM agent, first formula (background-subtracted), read-out: increase in the amount of Proto IX relative to the control
Procedure: In a series of experiments along the lines of Examples 1 and 2, cultures of HeLa cells were incubated in the presence of 100 uM of various treating agents, listed below. The percentage given, next to each treating agent, indicates the increase in the amount of Proto IX produced in the presence of that treating agent relative to the amount produced by the control in the same experiment.
As in Examples 1 and 2, the data for this Example 7 were based on measurements of fluorescence (e.g. in counts per second, "cps"). In this Example, however, the measurements were made on an extract of the cells alone (in contrast to Examples 1 and 2 in which the disrupted cells and culture medium together were extracted), the fluorometric medium was the one described in Example 5 (containing 1% Tween-20, 50 mM Tris-HCl, 1 mM EDTA and 1 mM dithioerythritol, pH 8.5), and a cps measurement of the fluorometric medium per se was also made. In calculating the foregoing data for this Example, the following formula was used to calculate the percentage increases: [formula] where Ca is the counts per second for the sample resulting from treatment with the agent, Cc is the counts per second for the control sample, and Cm is the counts per second for the fluorometric medium per se (i.e. the background fluoroescence). On reviewing the data it was observed that Cc -Cm for this set of experiments was […] compared to Cm; for instance, individual measured values were 49025 and 52069 for Cc and 4295 for Cm. […] Accordingly, the data were recalculated using the formula: [formula] with the following results: 6a 336%; 5b 148%; 6c 154%; 6d 510%; 6e 320%; 6f 280%; 6g 329%; 6h 178%; 6i 171%; 6j 185%; 7a 118%; 7b 142%; 7c 103%; 7d 128%; 7e 173%; 7f 118%; 7q 155%; 7h 118%.

[4] = tested on: HeLa cells; assay: Proto IX in HeLa cells and culture medium, cell growth observations (Example 8); type: cell-based, human; settings: 100 μM agent
Procedure: In a manner similar to Examples 1 and 2, cultures of HeLa cells were incubated in the presence of 100 μM of various treating agents, listed below. The agent was added in dilute solution in dimethylsulfoxide (DMSO),and the controls contained 0.2% DMSO v/v. After such incubation the culture medium was poured off, removing it from the cells, the cells were loosened from the culture flasks by addition of 0.25% W/v trypsin Which remained in contact With the cells for 20 minutes at 37° C., after which a fluorometric medium was added to the flask. The fluorometric medium was the same as that described in Example 7 except that its pH was 6.5; this medium also acted as an extractant. The resulting extract was analyzed for proto IX content. The separated culture medium was also analyzed fluorometrically for Proto IX content. The pairs of percentages given, next to each treating agent, indicate the amount of Proto IX produced in the presence of that treating agent relative to the amount produced by the control in the same experiment; the first number of each pair relates to the concentration of Proto IX in the culture medium and the second number relates to the concentration in the cells. [drawing 12]

[5] = tested on: chondrosarcoma; assay: Photodynamic treatment of chondrosarcoma in rats fed the agent (Example 9); type: in vivo, Sprague-Dawley rats; settings: three rats, 2000 ppm in feed for 6 days, 630 nm light 270 J/cm^2
Procedure: Specifically, three Sprague-Dawley rats of average weight 120 g were placed on a diet of feed containing 2000 ppm of the agent for a period of 6 days. On day 3, chondrosarcoma was implanted into the right hind limb of each rat by injecting 0.3 mL of a suspension of the tumor cells (about one million tumor cells). On day 6 the right hind limb of each rat was shaven and depilated, the size of each tumor was measured, and the tumor area and surrounding skin were then exposed to non-thermal doses of 630 nm light for a total of 270 J/cm^2.
In another set of experiments, 20 of the rats were placed on the same diet as above (i.e. feed containing 2000 ppm of agent), provided ad libitum, for 10 days before the treatment with the light, and the injection of the tumor cell suspension was made after the animals had been on the diet for 7 days. Such an injection causes the formation of a tumor having a well defined vascular network within 1 to 2 days. At the time of the treatment with light the tumors had diameters of 5-8 mm and were free of evident necrosis.

[6] = samples diluted with 3 parts basic acetone to one part sample

Compound	activity against mosquito larvae [1]	concentration of Proto IX in tissue, Adrenal [2]	concentration of Proto IX in tissue, Intestine [2]	concentration of Proto IX in tissue, Kidneys [2]	concentration of Proto IX in tissue, Liver [2]	concentration of Proto IX in tissue, Tumor [2]	Proto IX Mean Cps per gram, Adrenal [2]	Proto IX Mean Cps per gram, Kidneys [2]	Proto IX Mean Cps per gram, Liver [2]	Proto IX Mean Cps per gram, Tumor [2]	Weight of Tumor as excised [2]	Proto IX Mean Cps per gram, Intestine [2, 6]	activation at 100 µM [3]	Proto IX Mean Cps per gram, Intestine ([2]; undiluted samples (6j Day 7))	activity in the test in Example 8 (Proto IX production) [4]	tumor regression on the day after light treatment [5]
CCOC(=O)C(Cl)Cc1cc(-n2nc(C)n(C(F)F)c2=O)c(F)cc1Cl (centres unmarked)	active	–	–	–	–	–	–	–	–	–	–	–	–	–	–	–
CCOC(=O)C(C)Oc1ccc(Oc2cc(-n3nc(C)n(C(F)F)c3=O)c(F)cc2Cl)cc1 (centres unmarked) [Agent 6a]	active	60 ug of Proto IX per gram of tis	54 ug of Proto IX per gram of tis	99 ug of Proto IX per gram of tis	39 ug of Proto IX per gram of tis	11 ug of Proto IX per gram of tis	6572 Cps per gram × 10^3	10817 Cps per gram × 10^3	4291 Cps per gram × 10^3	1203 Cps per gram × 10^3	143 mg	5870 Cps per gram × 10^3	337%	–	–	–
COC(=O)c1cc(Oc2ccc(C(F)(F)F)cc2Cl)ccc1[N+](=O)[O-] [Agent 6b]	–	23 ug of Proto IX per gram of tis	51 ug of Proto IX per gram of tis	22 ug of Proto IX per gram of tis	12 ug of Proto IX per gram of tis	14 ug of Proto IX per gram of tis	2529 Cps per gram × 10^3	2441 Cps per gram × 10^3	1261 Cps per gram × 10^3	1520 Cps per gram × 10^3	90 mg	5577 Cps per gram × 10^3	366%	–	–	–
CCCn1c(=O)ccc2cc(F)c(-n3nc(C)n(C(F)F)c3=O)cc21 [Agent 6f]	–	51 ug of Proto IX per gram of tis	11 ug of Proto IX per gram of tis	6 ug of Proto IX per gram of tis	11 ug of Proto IX per gram of tis	4 ug of Proto IX per gram of tis	5611 Cps per gram × 10^3	661 Cps per gram × 10^3	1170 Cps per gram × 10^3	449 Cps per gram × 10^3	69 mg	–	280%	1157 Cps per gram × 10^3	–	–
C#CCN1C(=O)C(F)Oc2cc(F)c(-n3nc(C)n(C(F)F)c3=O)cc21 (centres unmarked) [Agent 6g]	–	18 ug of Proto IX per gram of tis	4 ug of Proto IX per gram of tis	6 ug of Proto IX per gram of tis	7 ug of Proto IX per gram of tis	2 ug of Proto IX per gram of tis	1984 Cps per gram × 10^3	606 Cps per gram × 10^3	803 Cps per gram × 10^3	166 Cps per gram × 10^3	250 mg	–	326%	466 Cps per gram × 10^3	–	–
CC(C)Oc1cc(-n2c(=O)n3n(c2=O)CCCC3)c(F)cc1Cl [Agent 6h]	–	21 ug of Proto IX per gram of tis	5 ug of Proto IX per gram of tis	5 ug of Proto IX per gram of tis	8 ug of Proto IX per gram of tis	3 ug of Proto IX per gram of tis	2259 Cps per gram × 10^3	585 Cps per gram × 10^3	914 Cps per gram × 10^3	298 Cps per gram × 10^3	192 mg	–	431%	584 Cps per gram × 10^3	–	–
C#CCN1C(=O)COc2cc(F)c(-n3nc4c(c3Cl)CCCC4)cc21 [Agent 6i]	–	337 ug of Proto IX per gram of tis	32 ug of Proto IX per gram of tis	37 ug of Proto IX per gram of tis	14 ug of Proto IX per gram of tis	9 ug of Proto IX per gram of tis	36940 Cps per gram × 10^3	4014 Cps per gram × 10^3	1510 Cps per gram × 10^3	932 Cps per gram × 10^3	20 mg	–	544%	3454 Cps per gram × 10^3	–	–
C#CCN1C(=O)COc2cc(F)c(N=c3sc(=S)n4n3CCCC4)cc21 [Agent 6j]	–	4 ug of Proto IX per gram of tis	5 ug of Proto IX per gram of tis	3 ug of Proto IX per gram of tis	5 ug of Proto IX per gram of tis	11 ug of Proto IX per gram of tis	491 Cps per gram × 10^3	315 Cps per gram × 10^3	538 Cps per gram × 10^3	1251 Cps per gram × 10^3	11 mg	–	469%	572 Cps per gram × 10^3	–	–
CS(=O)(=O)NC(=O)c1cc(Oc2ccc(C(F)(F)F)cc2Cl)ccc1[N+](=O)[O-] [Compound 8c]	–	–	–	–	–	–	–	–	–	–	–	–	–	–	much less active than compound 6c	did not produce any regression of the tumors
CCS(=O)(=O)Nc1cc(-n2nnn(CCCF)c2=O)c(F)cc1Cl [Compound 8h]	active	–	–	–	–	–	–	–	–	–	–	–	–	–	–	–
